# Results reported in patent US20220387407A1 (priority 2021, published 2022).
# Marks after values point to notes of the source that are not given here.
# What was measured:
# [1] = test system: conscious rats; parameters: species or system Sprague-Dawley rats; conditions: rat, in vivo
# [2] = test system: isoflurane-anesthetized rats; conditions: rat, in vivo
# [3] = test system: freely-moving rats; assay: Tissue O2 saturation (SpO2) analysis after morphine in freely-moving rats; conditions: for Cumulative change in sPO2: Post-drug, % change from morphine: 15 min post-morphine value as pre-value
# [4] = test system: freely-moving rats; assay: Arterial blood gases, pH and A-a gradient after morphine in freely-moving rats
# [5] = test system: freely-moving rats; assay: Blood pressure and heart rate measurement after morphine in freely-moving rats; conditions: for DBP, mmHg: Post-drug, % change from Pre (cumulative) / HR/MAP, mmHg/beats/min: Post-drug, % change from Pre (cumulative) / Heart rate (HR), beats/min: Post-drug, % change from Pre (cumulative) / MAP, mmHg: Post-drug, % change from Pre (cumulative) / SBP, MmHg: Post-drug % change from Pre (cumulative): 15-30 min post-morphine; for DBP, mmHg: Post-drug, % change from morphine (cumulative) / HR/MAP, mmHg/beats/min: Post-drug, % change from morphine (cumulative) / Heart rate (HR), beats/min: Post-drug % change from morphine (cumulative) / MAP, mmHg: Post-drug, % change from morphine (cumulative) / SBP, MmHg: Post-drug, % change from morphine (cumulative): final 15 min morphine value as pre-value
# [6] = Tempol 60 mg/kg IV 15 min after morphine 10 mg/kg IV
# [7] = Tempol 100 mg/kg IV 15 min after morphine 10 mg/kg IV
# [8] = Tempol 60 mg/kg IV after morphine 10 mg/kg IV, FIG. 14
structure (smiles),measurement,setting,value
"CC1(C)CC(O)CC(C)(C)N1[O] [Tempol, 4-hydroxy-2,2,6,6-tetramethylpiperidine-N-oxyl]","tail-flick latencies, effect of Tempol alone",[1],no effects
same,"frequency of breathing (Freq), change elicited by Tempol",[2],minimal changes
same,"heart rate (HR), change elicited by Tempol",[2],somewhat minor but sustained decreases
same,"mean (MAP), diastolic (DBP) and systolic (SBP) arterial blood pressures, change elicited by Tempol",[2],pronounced dose-dependent decreases
same,"tidal volume (TV) and minute ventilation (MV), change elicited by Tempol",[2],somewhat dose-dependent (relatively minor but sustained) increases
same,"total responses (all time points summed) in MAP, DBP, SBP and HR elicited by Tempol",[2],significant decreases
same,total responses (all time points summed) in TV and MV elicited by Tempol,[2],significant increases
same,"Cumulative change in sPO2: Post-drug, % change from morphine",[3]; [6],"+5.0 ± 0.6*^,† %"
same,"SpO2, effect of Tempol after morphine","[3]; Tempol 60 mg/kg IV 15 min after morphine 10 mg/kg IV, FIG. 17",minor short-lived rise
same,"Cumulative change in sPO2: Post-drug, % change from morphine",[3]; [7],"+12.4 ± 2.0*^,† %"
same,"negative effects of morphine on tissue oxygenation (SpO2), effect of Tempol","[3]; Tempol 100 mg/kg IV 15 min after morphine 10 mg/kg IV, FIG. 17",prompt and sustained reversal
same,"effects of morphine on pH and sO2, effect of Tempol",[4]; [8],not reaching significance
same,"negative effects of morphine on pCO2 and pO2, effect of Tempol",[4]; [8],reversed the negative effects
same,"morphine-induced rise in A-a gradient, effect of Tempol","[4]; Tempol 60 mg/kg IV after morphine 10 mg/kg IV, FIG. 15 top panel",not affected
same,"A-a gradient, effect of Tempol","[4]; Tempol 100 mg/kg IV after morphine 10 mg/kg IV, 5 min post-administration, FIG. 15 bottom panel",pronounced decrease
same,"negative effects of morphine on pH, pCO2, pO2 and sO2, effect of Tempol","[4]; Tempol 100 mg/kg IV after morphine 10 mg/kg IV, FIG. 16",sustained reversal
same,"DBP, mmHg: Post-drug, % change from Pre (cumulative)",[5]; [6],−16.7 ± 1.7 %
same,"HR/MAP, mmHg/beats/min: Post-drug, % change from Pre (cumulative)",[5]; [6],+19.2 ± 12.7 %
same,"Heart rate (HR), beats/min: Post-drug, % change from Pre (cumulative)",[5]; [6],+1.8 ± 7.1 %
same,"MAP, mmHg: Post-drug, % change from Pre (cumulative)",[5]; [6],−13.7 ± 1.7 %
same,"SBP, MmHg: Post-drug % change from Pre (cumulative)",[5]; [6],−9.5 ± 1.9 %
same,"MAP, change elicited by Tempol after morphine","[5]; Tempol 60 mg/kg IV 15 min after morphine 10 mg/kg IV, FIG. 18",minor short-lived fall
same,"DBP, mmHg: Post-drug, % change from morphine (cumulative)",[5]; [6],"−13.9 ± 2.4*^,† %"
same,"HR/MAP, mmHg/beats/min: Post-drug, % change from morphine (cumulative)",[5]; [6],"+53.3 ± 13.7*^,† %"
same,"Heart rate (HR), beats/min: Post-drug % change from morphine (cumulative)",[5]; [6],"+31.2 ± 10.3*^,† %"
same,"MAP, mmHg: Post-drug, % change from morphine (cumulative)",[5]; [6],"−13.2 ± 1.8*^,† %"
same,"SBP, MmHg: Post-drug, % change from morphine (cumulative)",[5]; [6],"−11.3 ± 1.6*^,† %"
same,"DBP, mmHg: Post-drug, % change from Pre (cumulative)",[5]; [7],−19.6 ± 2.0 %
same,"HR/MAP, mmHg/beats/min: Post-drug, % change from Pre (cumulative)",[5]; [7],+18.3 ± 3.9*7%
same,"Heart rate (HR), beats/min: Post-drug, % change from Pre (cumulative)",[5]; [7],"−6.8 ± 3.0*^,† %"
same,"MAP, mmHg: Post-drug, % change from Pre (cumulative)",[5]; [7],"−19.4 ± 1.5*^,† %"
same,"SBP, MmHg: Post-drug % change from Pre (cumulative)",[5]; [7],"−18.8 ± 1.2*^,† %"
same,"MAP, change elicited by Tempol after morphine","[5]; Tempol 100 mg/kg IV 15 min after morphine 10 mg/kg IV, FIG. 18",prompt and sustained decrease
same,"DBP, mmHg: Post-drug, % change from morphine (cumulative)",[5]; [7],−3.2 ± 4.1 %
same,"HR/MAP, mmHg/beats/min: Post-drug, % change from morphine (cumulative)",[5]; [7],"+43.0 ± 7.1*^,† %"
same,"Heart rate (HR), beats/min: Post-drug % change from morphine (cumulative)",[5]; [7],"+37.0 ± 9.9*^,† %"
same,"MAP, mmHg: Post-drug, % change from morphine (cumulative)",[5]; [7],−5.6 ± 3.2 %
same,"SBP, MmHg: Post-drug, % change from morphine (cumulative)",[5]; [7],"−9.1 ± 2.3*^,† %"
same,"morphine-induced bradycardia, effect of Tempol","[5]; Tempol 60 and 100 mg/kg IV 15 min after morphine 10 mg/kg IV, FIG. 18",prompt and sustained reversal
same,"heart rate/MAP ratios, change elicited by Tempol after morphine","[5]; Tempol 60 or 100 mg/kg IV, especially the 100 mg/kg dose, after morphine 10 mg/kg IV, FIG. 20",rapid and sustained increase
"CN1CC[C@]23c4c5ccc(O)c4O[C@H]2[C@@H](O)C=C[C@H]3[C@H]1C5 [Morphine, morphine]","SpO2, change elicited by morphine","[3]; morphine 10 mg/kg IV, FIG. 17",pronounced and long-lasting decrease
same,"pCO2, change elicited by morphine","[4]; morphine 10 mg/kg IV, FIG. 14",equally pronounced increases
same,"pH, pO2 and sO2, change elicited by morphine","[4]; morphine 10 mg/kg IV, FIG. 14",pronounced decreases
same,"A-a gradient, change elicited by morphine","[4]; morphine 10 mg/kg IV, FIG. 15",rise
same,"MAP, change elicited by morphine","[5]; morphine 10 mg/kg IV, FIG. 18",relatively minor initial decreases
same,"heart rate, change elicited by morphine","[5]; morphine 10 mg/kg IV, FIG. 18",substantial decreases
same,"ratio of heart rate/MAP (index of baroreceptor heart rate reflex activity), change elicited by morphine","[5]; morphine 10 mg/kg IV, FIG. 20",somewhat minor reductions
